Measurements published in patent US20240041042A1, “1-(PYRIDYL)-5-AZINYLPYRAZOLE DERIVATIVES, AND THEIR USE FOR CONTROL OF UNDESIRED PLANT GROWTH” (Bayer Aktiengesellschaft, priority 2020, published 2024).
Read-outs that look alike come from different tables or passages of the source. Values belong to the molecule of their own block, whether it stands above or below them.

Key:
Type in all cases: in vivo
[1] = tested on: Alopecurus myosuroides (ALOMY); experiment: Pre-emergence herbicidal action against ALOMY; conditions: scored visually after about 3 weeks, 100% = plants have died
In short: (§1)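 Application rates ran to 320 g/ha or lower, with several dosages tested on the same weeds. The compound, as wettable powder or emulsion concentrate, is sprayed pre-emergence onto soil over sown seeds; greenhouse growth follows, and effect is rated visually after roughly 3 weeks.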

Lolium rigidum (LOLRI) [2] = experiment: Post-emergence herbicidal action against LOLRI; conditions: dosage 320 g/ha
In short: (§2)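 Doses of 320 g/ha or lower, suffixes a, b and c marking different dosages, were applied post-emergence at the one-leaf stage in 600 l/ha water with 0.5% additive. Damage was assessed visually after about 3 weeks in the greenhouse.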

[3] = tested on: Abutilon theophrasti (ABUTH); experiment: Pre-emergence herbicidal action against ABUTH; conditions: Dosage column 320 g/ha (title prints 3200 g/ha); scored visually after about 3 weeks; 100% = plants have died
In short: as §1

[4] = tested on: Echinochloa crus-galli (ECHCG); experiment: Pre-emergence herbicidal action against ECHCG
In short: as §1

Lolium rigidum (LOLRI) [5] = experiment: Pre-emergence herbicidal action against LOLRI; conditions: dosage 320 g/ha
In short: as §1

[6] = tested on: Verconica persica (VERPE); experiment: Pre-emergence herbicidal action against VERPE
In short: as §1

Viola tricolor (VIOTR) [7] = experiment: Pre-emergence herbicidal action against VIOTR
In short: as §1

Setaria viridis (SETVI) [8] = experiment: Pre-emergence herbicidal action against SETVI
In short: as §1

[9] = tested on: Pharbitis purpurea (PHBPU); experiment: Post-emergence herbicidal action against PHBPU
In short: as §2

[10] = tested on: Polygonum convolvulus (POLCO); experiment: Post-emergence herbicidal action against POLCO
In short: as §2

Oryza sativa (ORYSA) = conditions: crop plant compatibility
In short: (§3)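 Visual rating (% effect vs. untreated plants; 100% = plant death) made about 3 weeks after treatment. Plants had been sprayed at one-leaf stage, 2–3 weeks post-sowing, with aqueous WP/EC preparations containing 0.5% additive, 600 l/ha water volume; a, b, c mark dose levels.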

[11] = tested on: Amaranthus retroflexus (AMARE); experiment: Pre-emergence herbicidal action against AMARE; conditions: visual scoring after about 3 weeks vs untreated controls
In short: as §1

Zea mays (ZEAMX) [12] = conditions: pre-emergence, 80 g/ha, crop plant compatibility, in comparison to untreated controls
In short: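 Crop injury rated visually in percent against untreated plants roughly 3 weeks after treatment (0% no effect, 100% plants dead). Compounds, as WP or EC with 0.5% additive in 600 l/ha water, were applied to the covering soil right after sowing; greenhouse growth. Suffixes a, b, c denote different dosages.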

[13] = tested on: Amaranthus retroflexus (AMARE); experiment: Post-emergence herbicidal action against AMARE
In short: as §2

Avena fatua (AVEFA) [14] = experiment: Pre-emergence herbicidal action against AVEFA; conditions: 320 g/ha, visual scoring after about 3 weeks vs untreated controls
In short: as §1

Setaria viridis (SETVI) [15] = experiment: Post-emergence herbicidal action against SETVI
In short: as §2

Avena fatua (AVEFA) [16] = experiment: Post-emergence herbicidal action against AVEFA; conditions: 320 g/ha, visual rating about 3 weeks after treatment
In short: as §2

[17] = tested on: Polygonum convolvulus (POLCO); experiment: Pre-emergence herbicidal action against POLCO
In short: as §1

[18] = tested on: Verconica persica (VERPE); experiment: Post-emergence herbicidal action against VERPE
In short: as §2

[19] = tested on: Matricaria inodora (MATIN); experiment: Pre-emergence herbicidal action against MATIN; conditions: dosage 320 g/ha
In short: as §1

[20] = tested on: Matricaria inodora (MATIN); experiment: Post-emergence herbicidal action against MATIN; conditions: dosage 320 g/ha
In short: as §2

[21] = tested on: Echinochloa crus-galli (ECHCG); experiment: Post-emergence herbicidal action against ECHCG
In short: as §2

[22] = tested on: Alopecurus myosuroides (ALOMY); experiment: Post-emergence herbicidal action against ALOMY; conditions: visual rating about 3 weeks after treatment vs untreated controls (100% = plants have died, 0% = like control plants)
In short: as §2

[23] = tested on: Pharbitis purpurea (PHBPU); experiment: Pre-emergence herbicidal action against PHBPU; conditions: dosage 320 g/ha
In short: as §1

[24] = tested on: Abutilon theophrasti (ABUTH); experiment: Post-emergence herbicidal action against ABUTH; conditions: visual rating about 3 weeks after treatment vs untreated controls (100% = plants have died, 0% = like control plants)
In short: as §2

Zea mays (ZEAMX) [25] = conditions: 20 g/ha, ZEAMX, effect in comparison to untreated controls
In short: as §3

Viola tricolor (VIOTR) [26] = experiment: Post-emergence herbicidal action against VIOTR; conditions: 80 g/ha
In short: as §2

[27] = tested on: Digitaria sanguinalis (DIGSA); experiment: Pre-emergence herbicidal action against DIGSA
In short: as §1

[28] = tested on: Digitaria sanguinalis (DIGSA); experiment: Post-emergence herbicidal action against DIGSA; conditions: 80 g/ha, visual rating about 3 weeks after treatment
In short: as §2

- Post-emergence action against ORYSA in % (Oryza sativa (ORYSA); 80 g/ha, effect in comparison to untreated controls): 0%
- Pre-emergence action against ZEAMX in % (Zea mays (ZEAMX) [12]): 20%
SMILES: COC(=O)CCOC(=O)COc1nn(-c2ccccn2)c(-c2ccc(F)nc2)c1Cl [Example I-88]
- Pre-emergence action against ALOMY ([1]; 80 g/ha): 80%
- Pre-emergence action against ALOMY ([1]; 320 g/ha): 100%
- Post-emergence action against LOLRI in % (Lolium rigidum (LOLRI) [2]): 80%
- Pre-emergence action against ABUTH [3]: 80%
- Pre-emergence action against ECHCG in % ([4]; dosage 80 g/ha): 90%
- Pre-emergence action against ECHCG in % ([4]; dosage 320 g/ha): 100%
- Pre-emergence action against LOLRI in % (Lolium rigidum (LOLRI) [5]): 100%
- Pre-emergence action against VERPE in % ([6]; dosage 80 g/ha): 80%
- Pre-emergence action against VERPE in % ([6]; dosage 320 g/ha): 90%
- Pre-emergence action against VIOTR in % (Viola tricolor (VIOTR) [7]; 320 g/ha, Viola tricolor): 90%
- Pre-emergence action against SETVI in % (Setaria viridis (SETVI) [8]; dosage 320 g/ha): 100%
- Post-emergence action against PHBPU in % ([9]; dosage 80 g/ha): 80%
- Post-emergence action against PHBPU in % ([9]; dosage 320 g/ha): 80%
- Post-emergence action against POLCO in % ([10]; dosage 80 g/ha): 80%
- Post-emergence action against POLCO in % ([10]; dosage 320 g/ha): 80%
- Pre-emergence action against AMARE in % ([11]; 80 g/ha): 80%
- Pre-emergence action against AMARE in % ([11]; 320 g/ha): 100%
- Post-emergence action against AMARE in % ([13]; 80 g/ha, visual rating about 3 weeks after treatment vs untreated controls (100% = plants have died, 0% = like control plants)): 80%
- Post-emergence action against AMARE in % ([13]; 320 g/ha, visual rating about 3 weeks after treatment): 80%
- Pre-emergence action against AVEFA in % (Avena fatua (AVEFA) [14]): 90%
- Post-emergence action against SETVI in % (Setaria viridis (SETVI) [15]; dosage 320 g/ha): 80%
- Post-emergence action against AVEFA in % (Avena fatua (AVEFA) [16]): 90%
- Pre-emergence action against POLCO in % ([17]; dosage 80 g/ha): 80%
- Pre-emergence action against POLCO in % ([17]; dosage 320 g/ha): 90%
- Post-emergence action against VERPE in % ([18]; 320 g/ha, VERPE): 80%
- Post-emergence action against VERPE in % ([18]; dosage 80 g/ha): 80%
- Pre-emergence action against MATIN in % [19]: 90%
- Post-emergence action against MATIN in % [20]: 80%
- Post-emergence action against ECHCG in % ([21]; dosage 80 g/ha): 80%
- Post-emergence action against ECHCG in % ([21]; dosage 320 g/ha): 90%
- Post-emergence action against ALOMY in % ([22]; 80 g/ha): 80%
- Post-emergence action against ALOMY in % ([22]; 320 g/ha): 90%
- Pre-emergence action against PHBPU in % [23]: 80%
- Post-emergence action against ABUTH in % ([24]; 80 g/ha): 80%
- Post-emergence action against ABUTH in % ([24]; 320 g/ha): 80%

- Post-emergence action against ORYSA in % (Oryza sativa (ORYSA); 20 g/ha, effect vs untreated controls): 0%
- Post-emergence action against ZEAMX in % (crop plant compatibility) (Zea mays (ZEAMX) [25]): 0%
SMILES: CCOC(=O)COc1nn(-c2ncccc2F)c(-c2ccc(F)nc2)c1Br [Example I-39]
- Pre-emergence action against ALOMY ([1]; 80 g/ha): 100%
- Pre-emergence action against ALOMY ([1]; 320 g/ha): 100%
- Pre-emergence action against ABUTH [3]: 90%
- Pre-emergence action against ECHCG in % ([4]; dosage 320 g/ha): 100%
- Pre-emergence action against LOLRI in % (Lolium rigidum (LOLRI) [5]): 100%
- Pre-emergence action against VERPE in % ([6]; dosage 320 g/ha): 100%
- Pre-emergence action against VIOTR in % (Viola tricolor (VIOTR) [7]; 320 g/ha, Viola tricolor): 100%
- Pre-emergence action against VIOTR in % (Viola tricolor (VIOTR) [7]; dosage 80 g/ha): 100%
- Pre-emergence action against SETVI in % (Setaria viridis (SETVI) [8]; dosage 80 g/ha): 100%
- Pre-emergence action against SETVI in % (Setaria viridis (SETVI) [8]; dosage 320 g/ha): 100%
- Post-emergence action against PHBPU in % ([9]; dosage 80 g/ha): 80%
- Post-emergence action against POLCO in % ([10]; dosage 80 g/ha): 90%
- Pre-emergence action against AMARE in % ([11]; 80 g/ha): 100%
- Pre-emergence action against AMARE in % ([11]; 320 g/ha): 100%
- Pre-emergence action against AVEFA in % (Avena fatua (AVEFA) [14]): 90%
- Post-emergence action against SETVI in % (Setaria viridis (SETVI) [15]; dosage 80 g/ha): 80%
- Pre-emergence action against POLCO in % ([17]; dosage 320 g/ha): 90%
- Post-emergence action against VERPE in % ([18]; dosage 80 g/ha): 80%
- Pre-emergence action against MATIN in % [19]: 100%
- Post-emergence action against ECHCG in % ([21]; dosage 80 g/ha): 80%
- Post-emergence action against ALOMY in % ([22]; 80 g/ha): 100%
- Post-emergence action against VIOTR in % (Viola tricolor (VIOTR) [26]): 80%
- Pre-emergence action against DIGSA in % ([27]; 80 g/ha, visual scoring after about 3 weeks vs untreated controls): 100%
- Pre-emergence action against DIGSA in % ([27]; dosage 320 g/ha): 100%
- Post-emergence action against ABUTH in % ([24]; 80 g/ha): 90%
- Post-emergence action against DIGSA in % [28]: 90%
